# Results published in patent publication US10568856B2, “Composition for improved sleep” (Jamieson Laboratories, Ltd., priority 2015, dated 2020).
# Test: Melatonin time release profile (dissolution testing) of bilayer caplet
# Format: physicochemical
# Conditions: for Melatonin Released (%): bilayer caplet
# Text: Initially, a small portion of melatonin was being added to the immediate release layer. […] The premix blends were modified by relocating all melatonin ingredients to the time release layer. During initial trials, modifications were also made to excipients for cost purposes. […] The final bilayer caplet is coated, making it easier to swallow, with peppermint oil for odour masking. With these optimum parameters assessed for each layer, the tablet satisfies all of the requisite physical and chemical parameters to deliver the ingredients as intended.
compound,measurement,setting,value
COc1ccc2[nH]cc(CCNC(C)=O)c2c1 [Melatonin],Melatonin Released (%),"hardness 28 kp, time 15 minutes",20%
same,Melatonin Released (%),"hardness 28 kp, time 60 minutes",57%
same,Melatonin Released (%),"hardness 28 kp, time 360 minutes",99%
same,Melatonin Released (%),"hardness 30 kp, time 15 minutes",18%
same,Melatonin Released (%),"hardness 30 kp, time 60 minutes",52%
same,Melatonin Released (%),"hardness 30 kp, time 360 minutes",98%
same,melatonin release in dissolution testing,initial trial formulation with a small portion of melatonin in the immediate release layer,released too quickly
